Data as given in the METLIN SMRT retention time set (Domingo-Almenara et al. 2019).

Test: gradient 5% acetonitrile 3 min, to 50% in 2 min, to 85% in 15 min, held 3 min, 100 µL/min
Conditions: column: Zorbax Extend-C18 2.1 x 50 mm; eluents: water / acetonitrile, 0.1% formic acid
Summary of the method: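 Data were gathered over 3 months by HPLC coupled to a quadrupole time-of-flight mass spectrometer, operated in positive and negative ionization mode. Mixtures of ~100 pure standards ran on a Zorbax Extend-C18 column (2.1 × 50 mm, 1.8 μm) at 100 μL/min, with water and acetonitrile each containing 0.1% formic acid and dead and dwell volumes of 40 μL and 900 μL. Retention time was read from adduct peaks picked by computer and checked manually.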

| Compound | RP-LC retention time |
| --- | --- |
| Cc1cccc(OCc2nc(-c3cccc(-c4ccnn4C)c3)no2)c1 | 824 s |
| Cc1cccc(Cn2nc3ccc(S(=O)(=O)N4CCCCCC4)cn3c2=O)c1 | 1000 s |
| O=C(c1cc(-c2ccccc2)n[nH]1)N1CCN(S(=O)(=O)c2ccc(F)cc2)CC1 | 840 s |
| c1ccc(Cn2cc(-c3noc(-c4ccccc4)n3)nn2)cc1 | 814 s |
| CCOC(=O)/C(C#N)=C\c1c[nH]c2ccccc12 | 649 s |
| Cc1cc(C2CCCN2C(=O)Nc2ccccc2C)on1 (configuration not stated) | 748 s |
| CC(C)Cn1cc(S(=O)(=O)NCc2ccccc2F)c2cccnc21 | 932 s |
| Cc1nc(SCC(=O)NCc2ccccc2Cl)cc(-c2ccccn2)n1 | 848 s |
| O=C(Cc1ccccc1Cl)N1CCCN(c2nc3cccnc3o2)CC1 | 716 s |
| CCCN1CCCCc2cc(C(=O)NCC(N)=O)sc21 | 686 s |
| CCc1cc(=O)n(CC(=O)Nc2ccc3c(c2)OCCO3)c(N2CCOCC2)n1 | 681 s |
| Fc1ccc(-c2nc(-c3ccc4nncn4c3)no2)cc1F | 822 s |
| CNC(=O)C1CCCN(c2nc3ncn(CC(=O)Nc4ccc(F)c(Cl)c4)c(=O)c3s2)C1 (configuration not stated) | 693 s |
| Cc1c(NC(=O)c2sc3cc(F)ccc3c2Cl)c(=O)n(-c2ccccc2)n1C | 756 s |
| COC(=O)c1ccc(Cl)cc1NC(=O)NCCc1cn(C)c2ncccc12 | 845 s |
| Cc1nc(-c2cc(S(=O)(=O)N3CCN(c4ccccc4F)CC3)c(C)s2)cs1 | 1210 s |
| CC(C)CC(=O)Nc1ccc2c(c1)N(C(=O)c1ccco1)CCC2 | 802 s |
| CC(C)n1c(=O)oc2cc(-c3noc(COc4ccc(Cl)cc4)n3)ccc21 | 1170 s |
| Cc1ccc(-c2csc(-n3nc(C)c(CC(=O)Nc4cc(Cl)ccc4C)c3C)n2)cc1 | 982 s |
| COc1ccc(Cl)cc1S(=O)(=O)N1CCCC(C(=O)NCc2ccncc2)C1 (configuration not stated) | 622 s |
| Fc1cccc(-c2nc(-c3cn(-c4ccccc4)nn3)no2)c1 | 1040 s |
| CCN(CC)C(=O)c1cc2c(s1)CCC(C(=O)N1CCC(C)CC1)C2 (configuration not stated) | 806 s |
| O=C(c1ccco1)N1N=C(c2ccco2)CC1c1ccc2nccnc2c1 (configuration not stated) | 718 s |

| Compound | RP-LC retention time |
| --- | --- |
| CCNC(=O)c1nc(C(=O)NCc2ccc(F)cc2)cs1 | 751 s |
| COC1CCN(CC2CCCCCN2C(=O)Nc2ccc3c(c2)OCCO3)CC1 (configuration not stated) | 651 s |
| Cn1nccc1-c1cccc(-c2noc(-c3ccoc3)n2)c1 | 938 s |
| COC(=O)c1cnc2nc(-c3ccccc3)nn2c1C | 832 s |
| CC(=O)c1ccc(Nc2ncnc3c2cnn3-c2ccccc2Cl)cc1 | 804 s |
| O=C(Nc1ccccc1Cl)NC1CCCN(c2cc(-c3ccncc3)[nH]n2)C1 (configuration not stated) | 582 s |
| Cc1ccc2nc(-c3ccc(O)cc3)c(Nc3ccccc3C)n2c1 | 678 s |
| O=C(NCc1ccc(F)cc1Cl)C1CCc2nc(N3CCOCC3)ncc2C1 (configuration not stated) | 768 s |
| Cc1ccccc1NC(=O)CSc1nc(=O)n(CCN(C)C)c2c1CCC2 | 610 s |
| CCOC(=O)c1c(CN2CCOCC2)n(C)c2cc(Br)c(OC)cc12 | 698 s |
| CCc1ccccc1NC(=O)c1cn(CC2CCCO2)cc2c(=O)n(-c3ccccc3)nc1-2 (configuration not stated) | 1060 s |
| CCOC(=O)c1c(C)[nH]c(CCC(=O)NCCN2CCN(C)CC2)c1C | 579 s |
| O=S(=O)(Nc1cc(F)ccc1F)c1c[nH]c2ncccc12 | 715 s |
| CCCNC(=O)CCc1c(C)c(C(=O)OCC)c(C)n1C | 779 s |
| Cc1ccccc1CNC(=O)c1ccc2c(c1)nc1n2CCN(C2CCCCC2)C1=O | 836 s |
| CCN(CC)C(=O)Cn1nc(-c2nc(-c3ccc(C)cc3)no2)c2ccccc21 | 1150 s |
| O=C(Nc1ccccc1Cl)c1c(O)c2cccnc2n(-c2cccc(F)c2)c1=O | 1270 s |
| CNC(=O)NC1CCN(c2nc3cccnc3n(Cc3ccccc3)c2=O)CC1 | 801 s |
| CCc1ccc(-n2ncc3c(=O)n(Cc4nc(-c5ccc(OC)c(OC)c5)no4)cnc32)cc1 | 1060 s |
| Cc1c(Cl)cccc1NC(=O)C1CCCN(c2nc3ccccc3nc2C(F)(F)F)C1 (configuration not stated) | 1230 s |
| CCc1ccc2c(C)nc(NC3=NC(C)(C)C=C(C)N3)nc2c1 | 636 s |
| O=C(Nc1ccc(Nc2cc(-n3ccnc3)ncn2)cc1)c1c[nH]c2ccccc12 | 562 s |
| O=S(=O)(c1ccccc1)N1CCC(CCOc2ccccc2)C1 (configuration not stated) | 754 s |

| Compound | RP-LC retention time |
| --- | --- |
| Cc1cccc(Cn2nc3n(c2=O)CCCCC3)c1 | 763 s |
| CCN1C(=O)CCC2(C(=O)Nc3ccc(N4CCOCC4)cc3)CCCC=C12 (configuration not stated) | 663 s |
| Cc1ccc(S(=O)(=O)N2CCC(n3cnc4ccc(C)cc4c3=O)CC2)c(C)c1 | 988 s |
| CCCCNC(=O)Nc1ccccc1CC | 870 s |
| Cc1cc(NC(=O)CSc2nncn2C)no1 | 554 s |
| CCc1ccccc1NC(=O)N1CCN(c2cc(C)nc(N3CCCC3)n2)CC1 | 670 s |
| Cc1cccc(CNC(=O)CN2CCN(Cc3cccc(Cl)c3)C2=O)c1 | 847 s |
| Cc1nc(-c2ccc(S(=O)(=O)Nc3cccnc3)cc2)co1 | 640 s |
| O=C(Nc1ccccc1Br)N1CCC(n2cnc3cccnc32)CC1 | 670 s |
| COc1ccc(CNC(=O)c2ccc3c(=O)n(-c4cccc(OC)c4)c(N4CCCC4)nc3c2)cc1 | 833 s |
| N#Cc1ccc(NC(=O)c2noc3c2CCCCC3)cc1 | 995 s |
| CCN1c2cc(Cl)ccc2C(=O)NC12CCN(C(=O)Nc1ccccc1OC)CC2 | 858 s |
| CCC1(O)CCC12CCN(C(=O)c1cccs1)CC2 (configuration not stated) | 718 s |
| CC(=O)Nc1ccc(SCc2nnc(-c3ccc4c(c3)OCO4)o2)cc1 | 760 s |
| NS(=O)(=O)c1ccc(NC(=O)Cc2csc3nc(-c4ccccc4)cn23)cc1 | 650 s |
| Cc1oc(-c2[nH]ncc2C(=O)N2CCCC2)cc1S(=O)(=O)NCc1ccccc1Cl | 715 s |
| Cc1noc(C)c1CNC(=O)c1ccc(C#N)cc1 | 675 s |
| Cc1cccc2nc(-c3c(F)cccc3Cl)c(Nc3ccc4c(c3)OCO4)n12 | 697 s |
| CCn1cc(S(=O)(=O)N2CCC(c3nn(C)c(=O)n3C3CCCC3)CC2)cn1 | 717 s |
| CC1(C(=O)NCc2ccc(F)cc2)Cn2cnc(C(=O)NCCc3ccccc3)c2C(=O)N1C1CC1 (configuration not stated) | 772 s |
| COc1ccc(NC(=O)N2CCC(n3cnc4ccc(Cl)cc4c3=O)CC2)c(OC)c1 | 803 s |
| COc1ccc(N2CCN(c3cc(SCC(=O)NC(C)CCc4ccccc4)ncn3)CC2)cc1 (configuration not stated) | 1310 s |
| Cc1ccc(-c2noc(Cn3ncn4nc(-c5ccccc5Cl)cc4c3=O)n2)cc1 | 1200 s |

| Compound | RP-LC retention time |
| --- | --- |
| Cc1cc(S(=O)(=O)N2CCC(n3cnnc3C)CC2)ccc1F | 702 s |
| CC(C)n1c(N2CCN(C(=O)c3ccc(F)cc3)CC2)cc(=O)n(C(C)C)c1=O | 792 s |
| CCn1ccc(NC(=O)NC(C)(C)C)n1 | 705 s |
| COc1ccc(NC(=O)N2CCC3(CC2)N=C(c2ccccc2)C(=O)N3)c(OC)c1 | 764 s |
| O=C(C1CC1)N1CCc2sc(S(=O)(=O)Nc3cccc(Cl)c3)cc2C1 | 879 s |
| O=C(NC1CC1)[C@@H]1C[C@H](Oc2cccnc2)CN1C(=O)CC1CCCC1 | 605 s |
| COc1ccc(Cl)cc1C(=O)NCC1(O)CCOCC1 | 622 s |
| O=C(Cn1c(Cc2ccccc2)nc2ccccc21)N1CCOCC1 | 593 s |
| CCn1cnnc1C1CCN(C(=O)C2(c3ccc(OC)cc3)CC2)CC1 | 599 s |
| CCN(CC)c1nc2cc(C(=O)OC)ccc2c(=O)n1-c1ccc2c(c1)OCO2 | 1080 s |
| COC(=O)CNC(=O)NCC(=O)N1CCc2ccccc21 | 647 s |
| Cc1cc(S(=O)(=O)N2CC(c3nc(-c4ncccn4)no3)C2)c(Cl)cc1Cl | 834 s |
| CCCOc1ccc(CN2CCC3(CCC3O)CC2)cc1OC (configuration not stated) | 629 s |
| CCc1ccccc1NC(=O)c1c(O)c2cccnc2n(-c2ccccc2)c1=O | 1290 s |
| CCn1nnc2cc(-c3noc(CN4C(=O)COc5ccccc54)n3)ccc21 | 845 s |
| CC1=C(c2ccccc2)C=NNCC1=O | 733 s |
| Cc1ccc(CNC(=O)C2CCCN(C(=O)c3[nH]c(C)cc3C)C2)cc1 (configuration not stated) | 804 s |
| Cc1ccc2cc(CN3CCC4(CC3)CC(O)CCO4)c(=O)[nH]c2c1 (configuration not stated) | 562 s |
| COC(=O)c1ccc2c(=O)n(CCc3ccccc3)c(N3CCN(c4ccccn4)CC3)nc2c1 | 756 s |
| Cc1ccccc1OCC(=O)Nc1cc2c(cc1Oc1ccccc1)n(C)c(=O)c(=O)n2C | 939 s |
| O=C(c1ccsc1)N1CCCCC1c1nncn1Cc1ccccc1 (configuration not stated) | 726 s |
| O=C(CN1CCN(Cc2ccc(F)cc2)C1=O)NCc1ccc(OC(F)(F)F)cc1 | 901 s |
| CCc1ccc(C2=C(C)C(N3CCCN(C(=O)CC4CCCC4)CC3)=NS2(=O)=O)cc1 | 984 s |
